According to the supplement of paper PMC10307832:

Columns and labels:
Assay in all cases: relative viability (nuclei count vs DMSO), 5 days (fraction); higher = more cells survive
[1] = compound: Cc1ccc(NC(=O)c2ccc(CN3CCN(C)CC3)cc2)cc1Nc1nccc(-c2cccnc2)n1 [Imatinib] + CC1(C)CCC(c2ccc(Cl)cc2)=C(CN2CCN(c3ccc(C(=O)NS(=O)(=O)c4ccc(N[C@H](CCN5CCOCC5)CSc5ccccc5)c(S(=O)(=O)C(F)(F)F)c4)cc3)CC2)C1 [Navitoclax] (partner 0.5 µM)
Summary of the method: (§1)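 Medians of duplicate plates are given as relative viability. That measure is the nuclei count in treated wells divided by the count in vehicle wells. Counts were taken on 4× images of lung cancer cell lines in 1536-well plates, 5 days after pin-tool dosing the day after seeding with one drug alone or a fixed anchor-drug dose plus five library-drug doses (not always all listed) in √10 steps.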

[2] = compound: Cc1ccc(NC(=O)c2ccc(CN3CCN(C)CC3)cc2)cc1Nc1nccc(-c2cccnc2)n1 [Imatinib] + CC(=O)Nc1cccc(-n2c(=O)n(C3CC3)c(=O)c3c(Nc4ccc(I)cc4F)n(C)c(=O)c(C)c32)c1 [Trametinib] (partner 0.02 µM)
Summary of the method: as §1

[3] = compound: Cc1ccc(NC(=O)c2ccc(CN3CCN(C)CC3)cc2)cc1Nc1nccc(-c2cccnc2)n1 [Imatinib] + NC(=O)Nc1cc(-c2cccc(F)c2)sc1C(=O)N[C@H]1CCCNC1 [AZD7762] (partner 0.2 µM)
Summary of the method: as §1

[4] = compound: Cc1ccc(NC(=O)c2ccc(CN3CCN(C)CC3)cc2)cc1Nc1nccc(-c2cccnc2)n1 [Imatinib] + Nc1nc2[nH]cc(CCc3ccc(C(=O)N[C@@H](CCC(=O)O)C(=O)O)cc3)c2c(=O)[nH]1 [Pemetrexed] (partner 0.2 µM)
Summary of the method: as §1

| Cell Line | relative viability ([1]; first compound 0.02 µM) | relative viability ([1]; first compound 0.2 µM) | relative viability ([1]; first compound 0.6325 µM) | relative viability ([1]; first compound 2 µM) | relative viability ([2]; first compound 0.02 µM) | relative viability ([2]; first compound 0.2 µM) | relative viability ([2]; first compound 0.6325 µM) | relative viability ([2]; first compound 2 µM) | relative viability ([3]; first compound 0.02 µM) | relative viability ([3]; first compound 0.2 µM) | relative viability ([3]; first compound 0.6325 µM) | relative viability ([3]; first compound 2 µM) | relative viability ([4]; first compound 0.02 µM) | relative viability ([4]; first compound 0.2 µM) | relative viability ([4]; first compound 0.6325 µM) | relative viability ([4]; first compound 2 µM) | relative viability ([1]; first compound 0.06325 µM) | relative viability ([2]; first compound 0.06325 µM) | relative viability ([3]; first compound 0.06325 µM) | relative viability ([4]; first compound 0.06325 µM) |
| --- | --- | --- | --- | --- | --- | --- | --- | --- | --- | --- | --- | --- | --- | --- | --- | --- | --- | --- | --- | --- |
| HOP-62 | 0.983 | 1.36 | 1.04 | 0.517 | 0.376 | 0.359 | 0.357 | 0.401 | 0.532 | 0.707 | 0.504 | 0.687 | 0.302 | 0.356 | 0.29 | 0.317 | – | – | – | – |
| LC-2-ad | 0.481 | 0.514 | 0.707 | 0.468 | 0.956 | 1.01 | 0.973 | 0.908 | 0.965 | 0.76 | 0.772 | 0.813 | 0.265 | 0.298 | 0.251 | 0.27 | 0.361 | – | – | – |
| LCLC-97TM1 | – | 0.605 | 0.554 | 0.399 | 0.235 | 0.183 | 0.207 | 0.172 | 0.28 | 0.238 | 0.258 | 0.177 | 0.183 | 0.197 | 0.165 | 0.184 | – | – | – | – |
| LCLC-103H | – | – | – | – | 0.752 | 0.742 | 0.655 | 0.658 | 0.809 | 0.876 | 0.695 | 0.781 | 0.458 | 0.472 | 0.464 | 0.504 | – | 0.673 | 0.779 | 0.445 |
| LK-2 | 0.975 | 0.848 | – | 0.84 | 0.783 | 0.919 | – | 0.87 | 0.343 | 0.335 | – | 0.33 | 0.272 | 0.296 | – | 0.272 | 0.685 | 0.61 | 0.442 | 0.29 |
| NCI-H358 | – | – | – | – | 0.14 | 0.129 | 0.139 | 0.121 | 0.559 | 0.489 | 0.574 | 0.521 | 0.167 | 0.189 | 0.171 | 0.178 | – | 0.143 | – | 0.169 |
| NCI-H520 | 1.24 | 1.18 | 1.04 | 1.12 | 0.775 | 0.669 | 0.674 | 0.8 | – | – | – | – | 0.556 | 0.709 | 0.716 | 0.733 | 1.14 | 0.531 | – | 0.768 |
| NCI-H650 | – | – | – | – | 0.969 | 0.937 | 1.04 | 0.843 | 1.11 | – | 1.03 | 0.979 | 0.986 | 0.834 | 0.951 | 0.875 | – | 0.833 | 0.882 | – |
| NCI-H661 | – | – | – | – | 0.62 | 0.649 | 0.586 | 0.593 | – | – | – | – | 0.915 | 0.93 | 0.931 | 0.936 | – | 0.419 | – | 1.09 |
| NCI-H727 | 0.324 | 0.4 | 0.412 | 0.417 | 0.334 | 0.411 | 0.392 | 0.411 | 0.651 | 0.506 | 0.573 | 0.507 | – | – | – | – | 0.398 | – | – | – |
| NCI-H1299 | 1.02 | 1.08 | 1.01 | 1.04 | – | – | – | – | – | – | – | – | – | – | – | – | 1.11 | – | – | – |
| NCI-H1563 | – | – | – | – | – | – | – | – | – | – | – | – | 0.861 | 0.787 | 0.772 | 0.631 | – | – | – | 0.678 |
| NCI-H1648 | – | – | – | – | 0.422 | 0.459 | 0.301 | 0.478 | 0.723 | 0.686 | 0.642 | 0.526 | 0.722 | 0.721 | 0.543 | 0.673 | – | 0.364 | 0.732 | 0.642 |
| NCI-H1650 | 1.39 | 1.25 | 1.31 | 1.13 | 0.579 | 0.404 | 0.635 | 0.559 | – | – | – | – | 0.414 | 0.362 | 0.335 | 0.416 | 1.35 | 0.471 | – | 0.405 |
| NCI-H2009 | 1.22 | 1.23 | 1.17 | 1.11 | 0.319 | 0.255 | 0.296 | 0.246 | – | – | – | – | 1.11 | 1.05 | 0.984 | 0.993 | 1.22 | 0.214 | – | 1.17 |
| NCI-H2023 | 1.08 | 1.12 | 0.958 | 0.898 | 0.729 | 0.564 | – | 0.618 | – | – | – | – | 0.224 | 0.304 | – | 0.27 | 1.23 | 0.6 | – | 0.318 |
| NCI-H2228 | 0.982 | 1.11 | 0.922 | 0.955 | 0.663 | 0.467 | 0.507 | 0.605 | – | – | – | – | 0.344 | 0.303 | 0.345 | 0.33 | 0.891 | 0.338 | – | 0.389 |
| NCI-H2342 | – | – | – | – | 0.847 | 0.869 | 0.828 | 0.853 | 0.434 | 0.443 | 0.455 | 0.553 | 0.688 | 0.834 | 0.738 | – | – | 0.814 | 0.493 | 0.665 |
| SK-LU-1 | 1.14 | 0.885 | 0.861 | 1.01 | 0.465 | 0.52 | 0.514 | 0.529 | – | – | – | – | 1.04 | 1.1 | 1.03 | 1.04 | – | 0.485 | – | 1.2 |
| SK-MES-1 | 1.41 | 1.33 | 1.37 | 1.44 | 0.642 | 0.589 | 0.587 | 0.588 | – | – | – | – | – | 1.04 | 0.889 | 0.857 | 1.29 | 0.663 | – | 1.02 |
| SW 900 | – | – | – | – | 0.776 | 0.641 | 0.756 | 0.76 | 0.784 | 0.605 | 0.619 | 0.529 | 0.465 | 0.418 | 0.47 | 0.425 | – | 0.625 | 0.572 | 0.393 |
| SW 1573 | 1.12 | 1.21 | 1.06 | 1.1 | 0.614 | 0.619 | 0.618 | 0.631 | – | – | – | – | 0.898 | – | 0.86 | 0.811 | 0.955 | 0.565 | – | 0.354 |
| UMC-11 | 0.303 | 0.291 | 0.334 | 0.329 | 0.706 | 0.643 | 0.896 | 0.717 | – | – | – | – | 0.906 | 0.864 | 0.811 | 0.781 | 0.35 | 0.736 | – | 0.972 |
